The subject of data set [1] is NIH 3T3 mouse fibroblast cells. Kind of data set: Mitogenic assay (mitogen-induced cell proliferation). The data set is classed as cell-based. The settings on record: for IC50: mitogen-induced cell proliferation; for Mitogenic Assay Inhibition: 10 µM compound.
Data set [2] has as its target T1, Ca2+-activated potassium channel (Gardos channel) of erythrocytes (Homo sapiens, UniProt O15554).
T1 construct: endogenous in cells; host or cells: erythrocytes
Briefly: Gardos channel assay. The class given is cell-based. The settings on record: for inhibition at 10 µM: 10 μM compound.

In data set [3] the test system is MCF7. Briefly: SRB antiproliferative assay MCF7. The data set is classed as cell-based. Particulars: Homo sapiens. An excerpt:
(§1) The cells were passaged using Trypsin (Gibco).

Data set [4] relates to A549. Kind of data set: SRB antiproliferative assay A549. The data set is classed as cell-based. The settings on record: Homo sapiens.
Text: as §1

The subject of data set [5] is HEPG2. Briefly: SRB antiproliferative assay HEPG2. Particulars: Homo sapiens. The class given is cell-based.
Text: as §1
(Sulforhodamine B stains cellular protein and so reports cell mass.)

Data set [6] has as its system MMRU. Kind of data set: SRB antiproliferative assay MMRU. The class given is cell-based. Particulars: Homo sapiens.
Text: as §1

The subject of data set [7] is HT29. Briefly: SRB antiproliferative assay HT29. Particulars: Homo sapiens. The class given is cell-based.
Text: as §1

The test system of data set [8] is U118MG. Briefly: SRB antiproliferative assay U118MG. The data set is classed as cell-based. The settings on record: Homo sapiens, U-118-MG.
Text: as §1

Data set [9] relates to MM-RU human melanoma cells. The settings on record: SCID mice inoculated with MM-RU human melanoma cells, daily administration; cited from earlier work.
The target in data set [10] is T2, red cell Gardos channel (Mus musculus, UniProt O89109).
T2 construct: host or cells: red cells of the SAD mouse, in vivo
T2 sequence (O89109 whole entry): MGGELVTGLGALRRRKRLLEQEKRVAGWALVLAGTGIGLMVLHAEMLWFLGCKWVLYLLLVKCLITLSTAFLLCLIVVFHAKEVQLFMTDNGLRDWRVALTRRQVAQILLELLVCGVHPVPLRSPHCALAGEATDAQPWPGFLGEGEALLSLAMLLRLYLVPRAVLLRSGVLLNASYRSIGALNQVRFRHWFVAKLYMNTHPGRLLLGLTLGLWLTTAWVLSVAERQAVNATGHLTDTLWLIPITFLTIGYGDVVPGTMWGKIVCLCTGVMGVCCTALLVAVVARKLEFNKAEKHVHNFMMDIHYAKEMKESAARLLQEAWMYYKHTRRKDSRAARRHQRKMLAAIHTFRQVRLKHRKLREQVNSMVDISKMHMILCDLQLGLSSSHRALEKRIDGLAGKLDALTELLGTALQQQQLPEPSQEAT
Particulars: SAD mouse, oral administration; cited from earlier work.

The target in data set [11] is T3, Gardos channel (Homo sapiens, UniProt O15554).
T3 construct: reduces erythrocyte dehydration in patients with sickle cell disease; host or cells: erythrocytes of sickle cell patients, in vivo
T3 sequence (O15554 whole entry): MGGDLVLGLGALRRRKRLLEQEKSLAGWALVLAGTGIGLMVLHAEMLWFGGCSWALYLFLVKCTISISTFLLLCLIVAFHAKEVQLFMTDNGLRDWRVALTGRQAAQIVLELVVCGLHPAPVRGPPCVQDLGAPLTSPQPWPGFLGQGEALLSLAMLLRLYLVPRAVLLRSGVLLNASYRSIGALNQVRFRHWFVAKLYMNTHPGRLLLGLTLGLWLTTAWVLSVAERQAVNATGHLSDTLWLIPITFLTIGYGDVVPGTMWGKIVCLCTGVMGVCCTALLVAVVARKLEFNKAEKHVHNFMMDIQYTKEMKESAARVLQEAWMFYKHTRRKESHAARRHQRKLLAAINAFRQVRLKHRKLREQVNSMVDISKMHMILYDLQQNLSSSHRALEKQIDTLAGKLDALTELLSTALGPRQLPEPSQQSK
Particulars: patients with sickle cell disease, oral; cited from earlier work.

The test system of data set [12] is HeLa. Briefly: SRB antiproliferative assay HeLa. The data set is classed as cell-based. Particulars: Homo sapiens; HeLa (Cervical), 5% FCS/5 day incubation; read-out: Test Compound IC50.
Text: as §1

In data set [13] the test system is CaSki. Kind of data set: SRB antiproliferative assay CaSki. The data set is classed as cell-based. Particulars: Homo sapiens, Ca-Ski; CaSki (Cervical), 5% FCS/5 day incubation; read-out: Test Compound IC50.
Text: as §1

Data set [14] relates to MDA-MB-23. Briefly: SRB antiproliferative assay MDA-MB-23. The settings on record: MDA-MB-23, read-out: Test Compound IC50. The class given is cell-based.
Text: as §1

Data set [15] concerns HTB174. Kind of data set: SRB antiproliferative assay HTB174. The class given is cell-based. Particulars: HTB174 (Lung), 5% FCS/5 day incubation; read-out: Test Compound IC50.
Text: as §1

Data set [16] relates to DU-145. Briefly: SRB antiproliferative assay DU-145. The class given is cell-based. Particulars: Homo sapiens; DU-145 (Prostate), 5% FCS/5 day incubation; read-out: Test Compound IC50.
Text: as §1

Data set [17] concerns SK-MEL-28. Briefly: SRB antiproliferative assay SK-MEL-28. The class given is cell-based. Particulars: Homo sapiens; SK-MEL-28 (Melanoma), 5% FCS/5 day incubation; read-out: Test Compound IC50.
Text: as §1

In data set [18] the test system is HCT-15. Briefly: SRB antiproliferative assay HCT-15. The class given is cell-based. The settings on record: Homo sapiens; HCT-15 (Colon), 5% FCS/5 day incubation; read-out: Test Compound IC50.
Text: as §1

Data set [19] relates to ACHN. Kind of data set: SRB antiproliferative assay ACHN. Particulars: Homo sapiens; ACHN (Renal), 5% FCS/5 day incubation; read-out: Test Compound IC50. The class given is cell-based.
Text: as §1

Data set [20] relates to SK-OV-3. Kind of data set: SRB antiproliferative assay SK-OV-3. The class given is cell-based. The settings on record: Homo sapiens; SK-OV-3 (Ovary), 5% FCS/5 day incubation; read-out: Test Compound IC50.
Text: as §1

For data set [21], the system named is HUVEC. Kind of data set: SRB assay normal cells HUVEC. The settings on record: HUVEC (Normal human), 5% FCS/5 day incubation; read-out: Test Compound IC50. The class given is cell-based.
Text: as §1

Data set [22] concerns GM. Kind of data set: SRB assay normal cells GM. Particulars: GM (Normal human), 5% FCS/5 day incubation; read-out: Test Compound IC50. The class given is cell-based.
Text: as §1

The subject of data set [23] is 3T3. Briefly: SRB assay normal cells 3T3. The class given is cell-based. The settings on record: NIH3T3; 3T3 (Normal mouse), 5% FCS/5 day incubation; read-out: Test Compound IC50.
Text: as §1

Data set [24] concerns L929. Kind of data set: SRB assay normal cells L929. The data set is classed as cell-based. Particulars: L929 (Normal mouse), 5% FCS/5 day incubation; read-out: Test Compound IC50.
Text: as §1

Where [25] appears, read: Mus musculus, NIH3T3, NIH 3T3 mouse fibroblast cells.
Setting [26] is: MCF7, 5% FCS/3 days, read-out: Test Compound IC50 Value in Cell Lines.
Setting [27] is: HEPG2, 5% FCS/3 days, read-out: Test Compound IC50 Value in Cell Lines.
Setting [28] is: MMRU, 5% FCS/3 days, read-out: Test Compound IC50 Value in Cell Lines.
Setting [29] is: HT-29, HT29, 5% FCS/3 days, read-out: Test Compound IC50 Value in Cell Lines.
The mark [30] stands for this setting: U118MG, 5% FCS/3 days, read-out: Test Compound IC50 Value in Cell Lines.

The structures appear in SMILES notation. Read-outs that look alike come from different tables or passages of the source. A value given as a limit tells only on which side of the number the result lay.

T1 sequence (O15554 whole entry): as above

`O=C(Oc1ccccc1)N1Cc2ccccc2C(c2ccccc2Cl)c2ccccc21` (centres unmarked) [Compound 26, N-phenoxycarbonyl-11-(2′-chlorophenyl)-5,6-dihydro-11H-dibenz[b,e]azepine] yielded a melting point of 95 to 99 °C. The IC50 in [1] (setting [25]) is 40 to 900 nM. In addition, in [2], the half-maximal inhibitory concentration (IC50) is > 10000 nM and the inhibition at 10 µM stood at 0.8%. The IC50 in data set [3] (setting [26]) is 5900 nM. Also, in data set [4] (A549, A549, 5% FCS/3 days, read-out: Test Compound IC50 Value in Cell Lines), the IC50 is 7000 nM. In [5] (setting [27]), the concentration for half-maximal inhibition (IC50) turned out to be 5400 nM. For the same molecule, in data set [6] (setting [28]), the IC50 was found to be 4900 nM. Besides, the IC50 in data set [7] (setting [29]) was found to be 7200 nM. For the same molecule, in data set [8] (setting [30]), the IC50 was found to be 5700 nM.
For `Clc1ccccc1C(c1ccccc1)(c1ccccc1)n1ccnc1` [Clotrimazole], the “Mitogenic Assay Inhibition” value in data set [1] (NIH 3T3 mouse fibroblast cells) was 93.0%. The “number of lung metastases” value in data set [9] is “significant reduction in the number of lung metastases observed”. Also, the “red cell Gardos channel, K+ content, MCHC, cell density” value in data set [10] was “inhibition of the red cell Gardos channel, increased red cell K^+ content, a decreased mean cell hemoglobin concentration (MCHC) and decreased cell density”. Besides, the “Gardos channel inhibition and erythrocyte dehydration” value in data set [11] was “induces inhibition of the Gardos channel and reduces erythrocyte dehydration”.
For `COC(=O)N1Cc2ccccc2C(c2ccccc2Cl)c2ccccc21` (centres unmarked) [Compound 9, N-methoxycarbonyl-11-(2′-chlorophenyl)-5,6-dihydro-11H-dibenz[b,e]azepine], the melting point lay in the range of 159 to 161 °C. In data set [1] (setting [25]), this molecule showed an IC50 of 2100 nM. In data set [2], this molecule came in with a half-inhibitory concentration (IC50) of 85 to 93 nM and an inhibition at 10 µM of 97.3%.
Consider `O=C(Oc1ccccc1)N1Cc2ccccc2C(c2ccccc2)c2ccccc21` (centres unmarked) [Compound 14, N-phenoxycarbonyl-11-phenyl-5,6-dihydro-11H-dibenz[b,e]azepine], for which the melting point fell in the range of 155 to 165 °C. Further, the midpoint of inhibition in data set [1] (setting [25]), the IC50, lay at 40 nM. Besides, in data set [2], the IC50 was > 10000 nM and the inhibition at 10 µM was determined as 14.8%. In data set [4] (A549, A549, 5% FCS/2 days, read-out: Test Compound IC50 Value in Cell Lines), the 50% inhibitory concentration (IC50) was > 10000 nM. Moreover, the IC50 in data set [6] (MMRU, 5% FCS/2 days, read-out: Test Compound IC50 Value in Cell Lines) is > 10000 nM. Also, the IC50 in data set [7] (HT-29, HT29, 5% FCS/2 days, read-out: Test Compound IC50 Value in Cell Lines) came out at 10000 nM.
In the case of `O=C(c1ccc([N+](=O)[O-])cc1)N1Cc2ccccc2C(c2ccccc2Cl)c2ccccc21` (centres unmarked) [Compound 28, N-(4′-nitrobenzoyl)-11-(2′-chlorophenyl)-5,6-dihydro-11H-dibenz[b,e]azepine], the “Mitogenic Assay Inhibition” value in data set [1] (NIH 3T3 mouse fibroblast cells) was 99.0%. In addition, the IC50 in data set [1] (NIH3T3, NIH 3T3 mouse fibroblast cells) was 40 to 500 nM; in data set [12] it was 300 nM; in data set [13] it was 500 nM; in data set [14], 500 nM; in data set [3] (MCF7 (Breast), 5% FCS/5 day incubation, read-out: Test Compound IC50), 600 nM; in data set [3] (setting [26]) it was 2100 nM. The concentration for half-maximal inhibition (IC50) in data set [4] (A549 (Lung), 5% FCS/5 day incubation, read-out: Test Compound IC50) is 800 nM; in [4] (A549, 5% FCS/3 days, read-out: Test Compound IC50 Value in Cell Lines), 1800 nM; in [15] it was 100 nM; in data set [5] (HEPG2 (Hepatocel), 5% FCS/5 day incubation, read-out: Test Compound IC50) it was 300 nM; in [5] (setting [27]) it was < 1250 nM; in data set [16], 900 nM. The IC50 in data set [17] was 400 nM; in [6] (MMRU (Melanoma), 5% FCS/5 day incubation, read-out: Test Compound IC50) it was 200 nM; in data set [6] (setting [28]), < 1250 nM; in [7] (HT-29, HT29 (Colon), 5% FCS/5 day incubation, read-out: Test Compound IC50), 300 nM; in data set [7] (setting [29]), < 1250 nM; in [18] it was 400 nM. Besides, the half-inhibitory concentration (IC50) is 700 nM in [19]; 500 nM in [8] (U118MG (CNS), 5% FCS/5 day incubation, read-out: Test Compound IC50); 1300 nM in data set [8] (setting [30]); > 1000 nM in data set [20]; 700 nM in [21]; 900 nM in data set [22]. The half-inhibitory concentration (IC50) in data set [23] was > 1000 nM; in data set [24], 600 nM. For the same molecule, in data set [2], 10 µM produced 0% inhibition.

By IC50 is commonly meant the point on the concentration scale where inhibition reaches its midpoint. Usually inhibition stands for the drop in the measured response relative to a control, in per cent. Lower therefore signals a weak effect. The melting point is the temperature of the solid-liquid transition.

The record behind these values is patent US20030134842A1, “METHODS FOR THE TREATMENT OR PREVENTION OF INFLAMMATORY DISEASES CHARACTERIZED BY ABNORMAL CELL PROLIFERATION” (priority 1997, published 2003).
